Measured values: patent US20080293683A1, “Hormone Replacement Therapy” (University of Kansas Medical Center, priority 2007, published 2008)
Read-outs that look alike come from different tables or passages of the source.

Tests used:
recombinant human ERβ = biological target: T1, recombinant human ERβ (Homo sapiens, UniProt Q92731); assay: ERβ binding assay: competition of [3H]E2 binding by competing estrogens; conditions: for RBAβ (%) (relative binding affinity for ERβ, of E2): calculated against E2 = 100; for binding affinity for ERβ (in words): concentrations up to 1000 nM
T1 construct: purchased PanVera Corporation (Madison, Wis.); host or cells: baculovirus-mediated expression system
From the text: (§1) The recombinant human ERα and ERβ proteins and bovine serum albumin (BSA) were obtained from PanVera Corporation (Madison, Wis.). According to the supplier, the recombinant human ERα and ERβ were produced in a baculovirus-mediated expression system, and they were soluble and functionally active, with post-translational modifications similar to those found in mammalian cells. See Reid et al., Human estrogen receptor-α: Regulation by synthesis, modification and degradation, Cell. Mol. Life.
(§2) The following buffer solutions were used in the ER binding assays, and they were prepared beforehand and stored at 4° C. The binding buffer consisted of 10% glycerol, 2 mM dithiothreitol, 1 mg/mL BSA and 10 mM Tris-HCl at pH 7.5. The ERα washing buffer contained 40 mM Tris-HCl and 100 mM KCl (pH 7.4), but the ERG washing buffer contained only 40 mM Tris-HCl (adjusted to pH 7.4). The 50% hydroxylapatite slurry was prepared first by vigorously mixing 10 g hydroxylapatite with 60 mL of the Tris-HCl solution (50 mM, pH 7.4). Hydroxylapatite was then allowed to settle for 20 minutes at room temperature, and the supernatant was decanted. The above procedures were repeated 10 times, and afterwards hydroxylapatite was kept in the 50 mM Tris-HCl solution overnight at 4° C. Hydroxylapatite slurry was then adjusted to an approximate final concentration of 50% (v/v) using the same Tris-HCl solution and stored at 4° C., and the slurry was stable for up to several months.
(§3) Note that all of the estrogens were initially dissolved in pure ethanol to a stock concentration of 1 mM, and then further diluted to 100 μM with 20% aqueous ethanol. […] Immediately before the addition of the ERα or ERβ protein, it was diluted in the binding buffer and mixed gently with repetitive pipettings. […] The incubation mixture was then mixed gently and thoroughly with repetitive pipettings. […] The binding mixture was incubated at room temperature for two hours. At the end of the incubation, 100 μL of the hydroxylapatite slurry was added to each tube and the tubes were incubated on ice for 15 minutes with 3 times of brief vortexing. An aliquot (1 mL) of the appropriate washing buffer was added, mixed, and centrifuged at 10,000 g for five minutes, and the supernatants were discarded. This wash step was repeated twice. Hydroxylapatite pellets were then resuspended in 200 μL ethanol (followed by another rinse with 200 μL ethanol), and then the content was transferred to scintillation vials (containing 4 mL of the scintillation fluid) for measurement of ^3H-radioactivity with a liquid scintillation counter (Packard Tri-CARB 2900 TR; Downers Grove, Ill.).
(§4) To calculate the specific binding (pmol/mL) of the human ERα or ERβ protein at each concentration point, the following equation was used: […]
(§5) When a lower radioligand concentration is used, the corresponding IC50 value will also be relatively lower, but when the radioligand concentration increases, the corresponding IC50 value will also increase. […] Since the RBA value is a parameter that is independent of the radioligand concentration used, we thus have placed more emphasis on the RBA values instead of the absolute IC50 values in interpreting the physiological meanings of the data from in vitro receptor competition assays.

recombinant human ERα = biological target: T2, recombinant human ERα (Homo sapiens, UniProt P03372); assay: ERα binding assay: competition of [3H]E2 binding by competing estrogens; conditions: for RBAα % (relative binding affinity for ERα, of E2): calculated against E2 = 100; for RBAα/RBAβ: ratio of relative binding affinities ERα over ERβ; for RBA for ERα, % of E1: relative to E1
T2 construct: purchased PanVera Corporation (Madison, Wis.); host or cells: baculovirus-mediated expression system
T2 sequence (P03372 1-595): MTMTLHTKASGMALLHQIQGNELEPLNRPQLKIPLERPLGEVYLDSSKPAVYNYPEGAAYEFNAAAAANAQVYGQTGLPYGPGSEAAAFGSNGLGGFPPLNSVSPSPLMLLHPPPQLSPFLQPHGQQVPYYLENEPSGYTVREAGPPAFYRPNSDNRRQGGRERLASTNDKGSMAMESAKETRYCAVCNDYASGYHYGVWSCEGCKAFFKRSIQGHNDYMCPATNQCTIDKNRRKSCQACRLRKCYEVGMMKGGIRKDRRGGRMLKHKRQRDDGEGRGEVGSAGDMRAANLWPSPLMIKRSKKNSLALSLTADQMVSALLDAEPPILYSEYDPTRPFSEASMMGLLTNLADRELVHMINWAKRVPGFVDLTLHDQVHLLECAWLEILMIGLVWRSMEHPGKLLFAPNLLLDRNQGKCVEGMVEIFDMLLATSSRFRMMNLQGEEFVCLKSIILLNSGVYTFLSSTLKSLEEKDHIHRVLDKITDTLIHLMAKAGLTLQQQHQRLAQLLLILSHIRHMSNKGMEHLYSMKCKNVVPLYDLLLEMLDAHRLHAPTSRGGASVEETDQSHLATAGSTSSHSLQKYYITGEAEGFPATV
From the text: as §1, §2, §3, §4, §5

postmenopausal person = conditions: singular use; cited from earlier work

T1 sequence (Q92731 whole entry): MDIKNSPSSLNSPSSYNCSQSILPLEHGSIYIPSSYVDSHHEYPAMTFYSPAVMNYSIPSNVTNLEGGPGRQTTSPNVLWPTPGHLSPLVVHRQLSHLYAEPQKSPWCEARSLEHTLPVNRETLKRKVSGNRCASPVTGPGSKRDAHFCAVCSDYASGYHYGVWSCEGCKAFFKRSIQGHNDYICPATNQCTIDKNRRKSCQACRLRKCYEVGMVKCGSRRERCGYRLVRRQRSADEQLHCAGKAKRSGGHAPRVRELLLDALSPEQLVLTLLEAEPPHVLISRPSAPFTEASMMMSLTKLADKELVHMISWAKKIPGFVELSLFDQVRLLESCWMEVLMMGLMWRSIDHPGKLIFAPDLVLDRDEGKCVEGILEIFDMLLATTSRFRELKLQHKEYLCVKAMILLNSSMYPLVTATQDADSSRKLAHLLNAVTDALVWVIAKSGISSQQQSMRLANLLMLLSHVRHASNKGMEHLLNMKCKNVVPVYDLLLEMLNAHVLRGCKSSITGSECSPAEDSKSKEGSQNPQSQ

Compound | RBAβ (%) (relative binding affinity for ERβ, of E2) (recombinant human ERβ) | IC50 (recombinant human ERβ; read-out: ERβ IC50) | RBAα % (relative binding affinity for ERα, of E2) (recombinant human ERα) | RBAα/RBAβ (recombinant human ERα) | IC50 (recombinant human ERα; read-out: ERα IC50) | further results
C[C@]12CC[C@@H]3c4ccc(O)cc4CC[C@H]3[C@@H]1[C@@H](O)[C@@H](O)[C@@H]2O [15α-OH-E3, 15α-Hydroxyestriol (Estetrol)] | 3% | 0.355 µM | 4% | 1.3 | 0.282 µM | RBAα/RBAβ (recombinant human ERα; listed as estetrol): about 1.3
C[C@@]12C=CC[C@H]1[C@@H]1CCc3cc(O)ccc3[C@H]1CC2 [16-Estratetraen, 1,3,5(10),16-Estratetraen-3-ol] | 80% | 0.0141 µM | 35% | 0.4 | 0.0316 µM | 
CC12CCC3c4ccc(O)cc4CCC3C1CC(=O)C2=O (centres unmarked) [16-Keto-E1, 16-Ketoestrone] | 10% | 0.0891 µM | 2% | 0.2 | 0.631 µM | RBA for ERβ, % of E1 (recombinant human ERβ; relative to E1): 501%; binding affinity for ERβ, fold higher than E1 (recombinant human ERβ; relative to E1): five-fold higher; relative preference for ERβ over ERα, times higher than E1 (recombinant human ERβ; relative to E1): approximately 25 times; RBA for ERα, % of E1 (recombinant human ERα): 18%
C[C@]12CC[C@@H]3c4ccc(O)cc4CC[C@H]3[C@@H]1CC(=O)[C@@H]2O [16-Keto-E2, 16-Ketoestradiol] | 18% | 0.0501 µM | 1% | 0.1 | 0.112 µM | 
C[C@]12CC[C@@H]3c4ccc(O)cc4CC[C@H]3[C@@H]1C[C@@H](O)C2=O [16α-OH-E1, 16α-Hydroxyestrone] | 35% |  |  | 0.1 |  | IC50 (recombinant human ERβ): 0.0251 µM; binding affinity for ERβ, fold higher than E1 (recombinant human ERβ; relative to E1): 18 fold; IC50 (recombinant human ERα): 0.0562 µM; binding affinity for ERα (in words) (recombinant human ERα): twice as high as that of E1
CC12CCCC1C1CCc3cc(O)ccc3C1CC2 (centres unmarked) [17-Desoxy-E2, 17-Desoxyestradiol] | 45% | 0.0199 µM | 16% | 0.4 | 0.0708 µM | 
C[C@]12CCc3c(ccc4cc(O)ccc34)[C@@H]1CCC2=O [D-Equilenin] | 7% |  | 2% | 0.3 |  | IC50 (recombinant human ERβ): 0.126 µM; ERβ RBA (recombinant human ERβ; Table 4, Premarin components): 7; RBA for ERβ, % of E1 (recombinant human ERβ; relative to E1): 355%; binding affinity for ERβ, fold higher than E1 (recombinant human ERβ; relative to E1): more than 3 fold; IC50 (recombinant human ERα): 0.562 µM; ERα RBA (recombinant human ERα; Table 4, Premarin components): 2; Ratio (ERα RBA / ERβ RBA) (recombinant human ERα; Table 4, Premarin components): 0.3; RBA for ERα, % of E1 (recombinant human ERα): 20%
C/C=C(/C(=C/C)c1ccc(O)cc1)c1ccc(O)cc1 [Dienestrol, reference compound] | 56% | 0.0199 µM | 37% | 0.7 | 0.0302 µM | 
C[C@]12CC[C@@H]3c4ccc(OS(=O)(=O)O)cc4CC[C@H]3[C@@H]1CC[C@@H]2O [E2-3-sulfate, Estradiol 3-sulfate] |  | > 1 µM |  |  | > 1 µM | binding affinity for ERβ (in words) (recombinant human ERβ): basically devoid of appreciable binding affinity; binding affinity for ERα (in words) (recombinant human ERα; concentrations up to 1000 nM): basically devoid of appreciable binding affinity
C[C@]12CC[C@@H]3c4ccc(O)cc4C[C@@H](CCCCCCO)[C@H]3[C@@H]1CC[C@@H]2O [E2-7α-(CH2)6OH, 7α-(6-Hydroxyhexanyl)-17β-estradiol] | 40% | 0.0223 µM | 27% | 0.7 | 0.0418 µM | 
O=c1c(-c2ccc(O)cc2)coc2cc(O)cc(O)c12 [Genistein] |  |  |  |  |  | effectiveness as hormone replacement therapy (postmenopausal person): ineffective
CC[C@H](c1ccc(O)cc1)[C@@H](CC)c1ccc(O)cc1 [Hexestrol, reference compound] | 60% | 0.0186 µM | 31% | 0.5 | 0.0363 µM | 
O=c1c(O)c(-c2cc(O)c(O)c(O)c2)oc2cc(O)cc(O)c12 [Myricetin, reference compound] |  | > 1 µM |  |  | > 1 µM | binding affinity for ERβ (in words) (recombinant human ERβ): no appreciable binding affinity; binding affinity for ERα (in words) (recombinant human ERα; concentrations up to 1000 nM): no appreciable binding affinity
